Values of other authors in patent publication US8685950B2, “Use of aromatase inhibitors for treatment of ectopic pregnancy” (Wayne State University, priority 2004, dated 2014).
Where a name gives a salt, the structure may show the parent alone. Each block holds one compound with its values, some of them ahead of it.

Legend:
[1] = in vivo
[2] = system: primate endometrium
[3] = system: ectopic pregnancy; details: ectopic pregnancy patients
[4] = system: progesterone production; details: baboon, early pregnancy
[5] = baboons; effect reversed by diethylstilbestrol

Compound: CCC1(c2ccc(N)cc2)CCC(=O)NC1=O (stereo not drawn) [aminoglutethimide]
patients stopping the treatment because of side effects (lethargy, rashes, nausea, fever) [1]: 8-15%

amount of estrogen and progesterone receptors [2]: decrease the amount of both receptors
Compound: C1=C(c2ccccc2)C(c2ccc(OCCN3CCCCC3)cc2)Oc2ccccc21 (stereo not drawn) [CDRI-85/287]

Compound: CN(Cc1cnc2nc(N)nc(N)c2n1)c1ccc(C(=O)N[C@@H](CCC(=O)O)C(=O)O)cc1 [methotrexate]
period to resolution of the pregnancy [3]: more than three weeks in most patients

Compound: COc1ccc(C2=C(C(=O)c3ccc(OCCN4CCCC4)cc3)c3ccccc3CC2)cc1 [trioxifene mesylate]
plasma progesterone [4]: no such effect was found

Compound: CCN(CC)CCOc1ccc(C(O)(Cc2ccc(OC)cc2)c2ccccc2)cc1 (stereo not drawn) [MER-25]
plasma progesterone [4]: depression in plasma progesterone

placental progesterone formation and serum progesterone concentrations [5]: decreased
Compound: CCN(CC)CCOc1ccc(C(O)(Cc2ccc(OC)cc2)c2ccccc2)cc1 (stereo not drawn) [ethamoxytriphetol]
